# US9492460B2, “Carbazole compounds useful as bromodomain inhibitors” (Bristol-Myers Squibb Company, priority 2013, dated 2016)
# Target: T1, bromodomain BRD4 (44-168), BRD4 (333-460), and BRD4 (1-477 or 44-460) (Homo sapiens, UniProt O60885)
# T1 construct: BRD4(44-168), BRD4(333-460), BRD4(44-460), BRD4(1-477), O60885-1; fused on or other part: N-terminal BirA biotinylation motif, biotinylated; The TVMV-cleavable His6 tag is removed, except in some BRD4(44-460) runs detected with anti-His terbium cryptate
# Assay: Time Resolved Fluorescence Resonance Energy Transfer (TR-FRET) binding assay
# Settings: one of the FRET assays described
row,SMILES,IC50
1,Cc1noc(C)c1-c1cc(C(N)=O)c2c3cc(C(=O)N4CC(F)(F)C4)ccc3n(Cc3ccccc3)c2c1 [Example 78],< 50 nM
2,"Cc1noc(C)c1-c1cc(C(N)=O)c2c3cc(C(=O)N4C[C@@H](C)O[C@@H](C)C4)ccc3n(S(=O)(=O)c3ccccc3)c2c1 [Example 45, 2-(3,5-dimethylisoxazol-4-yl)-6-(cis-2,6-dimethylmorpholine-4-carbonyl)-9-(phenylsulfonyl)-9H-carbazole-4-carboxamide]",< 7500 nM
3,Cc1noc(C)c1-c1cc(C(N)=O)c2c3cc(C(=O)N(C)C)ccc3n(Cc3ccccc3)c2c1 [Example 48],< 50 nM
4,Cc1cccc(Cn2c3ccc(C(=O)N4CC(C)OC(C)C4)cc3c3ccc(-c4c(C)noc4C)cc32)c1 (centres unmarked) [Example 20],< 500 nM
5,"Cc1noc(C)c1-c1cc(C(N)=O)c2c3ccc(C(C)(C)O)cc3n(C[C@@]3(F)C[C@@H]4CC[C@H]3O4)c2c1 (relative stereo) [Example 225, rel-2-(dimethyl-1,2-oxazol-4-yl)-9-{[(1R,2S,4S)-2-fluoro-7-oxabicyclo[2.2.1]heptan-2-yl]methyl}-7-(2-hydroxypropan-2-yl)-9H-carbazole-4-carboxamide]",< 50 nM
6,"Cc1noc(C)c1-c1cc(C#N)c2c3ccc(C(N)=O)cc3n(C(c3ccccc3)c3ccccc3)c2c1 [Example 194, 5-Cyano-7-(3,5-dimethyl-4-isoxazolyl)-9-(diphenylmethyl)-9H-carbazole-2-carboxamide]",< 50 nM
7,"CC(=O)N(C)c1ccc2c(c1)c1c(C(N)=O)cc(-c3c(C)noc3C)cc1n2Cc1ccccc1 [Example 131, 9-benzyl-2-(3,5-dimethylisoxazol-4-yl)-6-(N-methylacetamido)-9H-carbazole-4-carboxamide]",< 50 nM
8,"Cc1noc(C)c1-c1cc(C(N)=O)c2c3cc(C(=O)N4CC(F)(F)C4)ccc3n(C(C)c3ccccc3)c2c1 (racemic) [Example 96, 6-((3,3-difluoro-1-azetidinyl)carbonyl)-2-(3,5-dimethyl-4-isoxazolyl)-9-(1-phenylethyl)-9H-carbazole-4-carboxamide]",< 50 nM

# Other lines, results leading:
row,IC50,SMILES
1,< 500 nM,"Cc1noc(C)c1-c1cc(C(=O)N2CC(F)C2)c2c3cc(C(=O)N4CC(F)C4)ccc3n(Cc3ccc(F)cc3)c2c1 [Example 129, 2-(3,5-dimethyl-4-isoxazolyl)-4,6-bis((3-fluoro-1-azetidinyl)carbonyl)-9-(4-fluorobenzyl)-9H-carbazole]"
2,< 7500 nM,"CCNC(=O)c1cc(-c2c(C)noc2C)cc2c1c1cc(N3CCCOC3=O)ccc1n2Cc1ccc(F)cc1 [Example 155, 2-(3,5-dimethyl-4-isoxazolyl)-N-ethyl-9-(4-fluorobenzyl)-6-(2-oxo-1,3-oxazinan-3-yl)-9H-carbazole-4-carboxamide]"
3,< 50 nM,"Cc1noc(C)c1-c1cc(C(N)=O)c2c3cc(C(=O)N4CC(F)(F)C4)ccc3n(Cc3ccc(Cl)cc3)c2c1 [Example 95, 9-(4-chlorobenzyl)-6-((3,3-difluoro-1-azetidinyl)carbonyl)-2-(3,5-dimethyl-4-isoxazolyl)-9H-carbazole-4-carboxamide]"
4,< 7500 nM,"Cc1noc(C)c1-c1cc(C(=O)NC(C)C)c2c3cc(C(=O)N4CC(F)C4)ccc3n(Cc3ccc(F)cc3)c2c1 [Example 127, 2-(3,5-dimethyl-4-isoxazolyl)-6-((3-fluoro-1-azetidinyl)carbonyl)-9-(4-fluorobenzyl)-N-isopropyl-9H-carbazole-4-carboxamide]"
5,< 50 nM,CNC(=O)c1cc(-c2c(C)noc2C)cc2c1c1cc(C(=O)N3CC(F)C3)ccc1n2Cc1ccc(C#N)cc1 [Example 108]
6,< 50 nM,"Cc1noc(C)c1-c1cc(C(N)=O)c2c3cc(C(=O)N4CC[C@H](F)C4)ccc3n(Cc3c(F)cccc3F)c2c1 [Example 79, 9-(2,6-difluorobenzyl)-2-(3,5-dimethyl-4-isoxazolyl)-6-(((3S)-3-fluoro-1-pyrrolidinyl)carbonyl)-9H-carbazole-4-carboxamide]"
